# Experimental data reported in paper PMC5281058 (Journal of the American Chemical Society, 2015).
# Read-outs that look alike come from different tables or passages of the source.
# Assays:
# [1] = cited from earlier work
# [2] = target: T1, adenosine deaminase (ADA) (Homo sapiens, UniProt P00813); assay type: biochemical; settings: for reaction half-life t1/2 of deamination by ADA: calculated assuming a pseudo-first order reaction, real-time absorption; for deamination rate by ADA (in words): real-time continuous measurements, compared with A to I
# T1 sequence (P00813 1-363): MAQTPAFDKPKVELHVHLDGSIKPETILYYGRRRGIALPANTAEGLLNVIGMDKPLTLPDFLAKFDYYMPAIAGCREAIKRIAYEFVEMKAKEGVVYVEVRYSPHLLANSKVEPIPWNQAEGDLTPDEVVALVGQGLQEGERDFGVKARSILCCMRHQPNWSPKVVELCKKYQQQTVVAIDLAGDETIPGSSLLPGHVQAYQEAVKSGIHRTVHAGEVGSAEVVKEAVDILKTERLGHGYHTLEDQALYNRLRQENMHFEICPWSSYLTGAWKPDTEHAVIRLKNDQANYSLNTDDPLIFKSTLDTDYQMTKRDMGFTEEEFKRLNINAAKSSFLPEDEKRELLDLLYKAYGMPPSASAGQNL
# [3] = target: T1, adenosine deaminase (ADA); settings: conversion of ^thA to ^thI; ref 4b; cited from earlier work
structure (smiles),measurement,setting,value
O=c1ccn([C@@H]2O[C@H](CO)[C@@H](O)[C@H]2O)c(=O)[nH]1 [uridine],pKa (N3 deprotonation),[1]; values reported for N3 deprotonation in uridine,9.20–9.25
Nc1nc2c(ncn2[C@@H]2O[C@H](CO)[C@@H](O)[C@H]2O)c(=O)[nH]1 [guanosine],pKa (N7),"[1]; reported values for guanosine, first value",3.2–3.3
same,pKa (N1),"[1]; reported values for guanosine, second value",9.2–9.6
Nc1ncnc2c([C@@H]3O[C@H](CO)[C@@H](O)[C@H]3O)snc12 [^tzA],reaction half-life t1/2 of deamination by ADA,[2],39 s
same,deamination rate by ADA (in words),[2],at the same rate as it deaminates A to I
Nc1ncnc2c([C@@H]3O[C@H](CO)[C@@H](O)[C@H]3O)scc12 [^thA],reaction half-life t1/2 of deamination by ADA,[2],818 s
same,deamination rate by ADA (in words),[2],sluggish
same,"enzymatic conversion by ADA, times slower compared to adenosine",[3],approximately 20 times
Nc1ncnc2c1ncn2[C@@H]1O[C@H](CO)[C@@H](O)[C@H]1O [adenosine],half-life,[2]; adenosine deaminase (ADA) enzyme,57 s
same,pKa (N1),[1]; reported values for adenosine,3.6– 4.2
